One assay concerns MAO-A. Also noted: method as in PMID 24140951. To be noted: control of MAO-A inhibition; cited from earlier work.
In assay [1] the target is T1, Human monoamine oxidase A (Homo sapiens, UniProt P21397).
T1 construct: purchased Sigma-Aldrich (Milan, Italy)
T1 sequence (P21397 1-527): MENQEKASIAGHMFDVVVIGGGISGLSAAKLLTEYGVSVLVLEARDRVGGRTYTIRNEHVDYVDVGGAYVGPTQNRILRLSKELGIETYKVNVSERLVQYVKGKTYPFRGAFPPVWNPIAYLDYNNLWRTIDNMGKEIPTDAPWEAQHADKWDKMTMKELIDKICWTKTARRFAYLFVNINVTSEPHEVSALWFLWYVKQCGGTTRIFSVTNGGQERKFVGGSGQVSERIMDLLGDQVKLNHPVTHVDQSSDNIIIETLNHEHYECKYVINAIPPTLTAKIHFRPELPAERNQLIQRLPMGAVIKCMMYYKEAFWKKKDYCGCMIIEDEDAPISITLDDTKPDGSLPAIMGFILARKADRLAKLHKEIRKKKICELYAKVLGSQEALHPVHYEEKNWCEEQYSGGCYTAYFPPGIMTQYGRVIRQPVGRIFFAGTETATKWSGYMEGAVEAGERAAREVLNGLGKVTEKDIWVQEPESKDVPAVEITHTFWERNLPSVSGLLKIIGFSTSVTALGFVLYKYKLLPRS
In words: Steady-state MAO-A activity, fluorimetric kynuramine assay. The format is biochemical. To be noted: 40 μM kynuramine, 20 min, pH 7.1; mean ± SD (n); from semilogarithmic plot. How it is done: Monoamine oxidase activity was assayed by the fluorimetric method, as previously reported. This method, based on the monoamine oxidase oxidation of its non-selective substrate kynuramine, led to the production of […], which becomes fluorescent in alkaline conditions. In steady-state measurements of MAO activity, the reaction mixture (250 µL), prepared in a 50 mM potassium phosphate buffer, pH 7.1 (buffer A), contained 40 μM kynuramine in the absence or presence of the indicated concentration of the inhibitor. The DMSO concentration carried over by the inhibitor was 0.5% (v/v), and an identical concentration of DMSO was used in the absence of the inhibitor. […] The reaction was stopped by adding 150 μL of 2 M NaOH and, after 10 min of incubation at room temperature, 240 μL of water. After centrifugation (10 min at 15,000 rpm), the fluorescence signal was measured on 500 μL of supernatant using a Cary Eclipse Spectrofluorimeter (Agilent Technologies, Milan, Italy) at room temperature (20–25 °C).

The target of assay [2] is T2, Human monoamine oxidase B (Homo sapiens, UniProt P27338).
T2 construct: purchased Sigma-Aldrich (Milan, Italy)
T2 sequence (P27338 1-520): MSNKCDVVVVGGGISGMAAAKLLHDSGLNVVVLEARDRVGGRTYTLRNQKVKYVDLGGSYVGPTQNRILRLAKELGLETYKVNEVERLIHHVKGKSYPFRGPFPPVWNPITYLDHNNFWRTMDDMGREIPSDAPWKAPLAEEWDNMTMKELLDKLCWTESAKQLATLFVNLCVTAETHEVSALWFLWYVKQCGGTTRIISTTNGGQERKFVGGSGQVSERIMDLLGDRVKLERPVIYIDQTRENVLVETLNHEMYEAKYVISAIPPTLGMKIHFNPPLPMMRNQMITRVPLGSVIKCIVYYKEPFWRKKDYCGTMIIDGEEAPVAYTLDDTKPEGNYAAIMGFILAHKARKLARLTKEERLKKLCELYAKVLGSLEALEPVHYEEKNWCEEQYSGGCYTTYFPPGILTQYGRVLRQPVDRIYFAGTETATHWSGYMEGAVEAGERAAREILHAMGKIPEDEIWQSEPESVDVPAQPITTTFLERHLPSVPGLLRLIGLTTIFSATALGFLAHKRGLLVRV
In words: Steady-state MAO-B activity, fluorimetric kynuramine assay. The format is biochemical. The following applies: 40 μM kynuramine, 20 min, pH 7.1; mean ± SD (n); from semilogarithmic plot. The method, then:
(§1) Monoamine oxidase activity was assayed by the fluorimetric method, as previously reported. This method, based on the monoamine oxidase oxidation of its non-selective substrate kynuramine, led to the production of […], which becomes fluorescent in alkaline conditions. In steady-state measurements of MAO activity, the reaction mixture (250 µL), prepared in a 50 mM potassium phosphate buffer, pH 7.1 (buffer A), contained 40 μM kynuramine in the absence or presence of the indicated concentration of the inhibitor. The DMSO concentration carried over by the inhibitor was 0.5% (v/v), and an identical concentration of DMSO was used in the absence of the inhibitor. The reaction started with the addition of 3.75 μg monoamine oxidase A or B and lasted 20 min. The reaction was stopped by adding 150 μL of 2 M NaOH and, after 10 min of incubation at room temperature, 240 μL of water. After centrifugation (10 min at 15,000 rpm), the fluorescence signal was measured on 500 μL of supernatant using a Cary Eclipse Spectrofluorimeter (Agilent Technologies, Milan, Italy) at room temperature (20–25 °C). Excitation and emission wavelengths of 315 and 380 nm, respectively, were employed; slits were set to 10 nm for both the excitation and emission beams.

In assay [3] the target is T3, bovine milk xanthine oxidase (Bos taurus, UniProt P80457).
T3 construct: bovine milk xanthine oxidase; purchased Sigma-Aldrich (Milan, Italy); host or cells: bovine milk
T3 sequence (P80457 whole entry): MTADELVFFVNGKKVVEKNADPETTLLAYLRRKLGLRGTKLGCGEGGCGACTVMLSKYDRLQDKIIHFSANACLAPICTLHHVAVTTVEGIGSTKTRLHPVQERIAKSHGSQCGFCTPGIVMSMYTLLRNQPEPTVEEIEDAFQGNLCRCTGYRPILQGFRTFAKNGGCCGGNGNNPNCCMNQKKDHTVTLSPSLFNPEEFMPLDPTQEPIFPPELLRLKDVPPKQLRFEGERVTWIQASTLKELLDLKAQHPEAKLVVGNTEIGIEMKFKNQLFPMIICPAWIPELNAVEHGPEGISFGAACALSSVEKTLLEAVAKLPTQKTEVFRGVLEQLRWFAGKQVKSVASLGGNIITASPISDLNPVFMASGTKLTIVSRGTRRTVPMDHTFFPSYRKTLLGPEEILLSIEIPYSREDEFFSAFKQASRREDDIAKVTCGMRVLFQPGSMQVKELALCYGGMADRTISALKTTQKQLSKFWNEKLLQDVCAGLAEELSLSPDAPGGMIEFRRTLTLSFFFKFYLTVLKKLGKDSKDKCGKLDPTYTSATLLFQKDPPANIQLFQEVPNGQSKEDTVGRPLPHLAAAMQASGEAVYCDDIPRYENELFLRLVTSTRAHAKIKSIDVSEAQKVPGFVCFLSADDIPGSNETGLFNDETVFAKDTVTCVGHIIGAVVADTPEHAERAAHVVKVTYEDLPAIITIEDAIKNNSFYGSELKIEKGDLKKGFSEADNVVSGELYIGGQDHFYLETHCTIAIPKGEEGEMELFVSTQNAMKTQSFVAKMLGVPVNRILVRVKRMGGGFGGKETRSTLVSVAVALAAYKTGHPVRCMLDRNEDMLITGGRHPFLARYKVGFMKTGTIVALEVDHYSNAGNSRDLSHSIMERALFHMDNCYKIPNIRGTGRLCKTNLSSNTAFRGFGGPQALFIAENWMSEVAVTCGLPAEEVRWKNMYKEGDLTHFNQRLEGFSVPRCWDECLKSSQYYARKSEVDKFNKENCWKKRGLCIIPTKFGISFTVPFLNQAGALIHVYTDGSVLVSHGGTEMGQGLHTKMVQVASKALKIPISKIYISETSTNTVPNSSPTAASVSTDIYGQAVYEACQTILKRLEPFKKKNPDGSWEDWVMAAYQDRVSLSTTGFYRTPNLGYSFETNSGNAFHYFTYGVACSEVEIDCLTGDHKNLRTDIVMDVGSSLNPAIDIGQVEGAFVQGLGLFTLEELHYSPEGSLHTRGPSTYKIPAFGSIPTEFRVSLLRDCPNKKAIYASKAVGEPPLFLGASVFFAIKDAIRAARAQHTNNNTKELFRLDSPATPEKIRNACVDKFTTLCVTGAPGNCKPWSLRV
In words: Steady-state xanthine oxidase activity, spectrophotometric assay. The format is biochemical. How it is done: Xanthine oxidase activity was assayed through a spectrophotometric method, essentially as previously reported. […] The DMSO concentration carried over by the inhibitor was 1% (v/v), and an identical concentration of DMSO was used in the absence of the inhibitor. The reaction started with the addition of XO and was followed kinetically for up to 30 s. The initial rate of uric acid formation was expressed as ΔE/min. The effect of each inhibitor in the XO assay was evaluated, and the data were treated as previously indicated for the MAO assay, including the extrapolation of the IC50 values.

The target of assay [4] is T1, Human monoamine oxidase A. In words: Kinetic analysis of MAO-A inhibition (KM, Vmax, apparent Ki). The format is biochemical. The method, then: as §1
(§2) The kinetic parameters KM and Vmax for MAO and XO substrates were obtained through kinetic measurements of these activities performed at different substrate concentrations, either in the absence or in the presence of two fixed concentrations of the various inhibitors. […] Each assay was realized as reported above, and the values of the initial velocity (vi) of the reaction were evaluated under the various experimental conditions. The data of vi were nonlinearly fitted according to the Michaelis–Menten equation or analyzed by the Lineweaver–Burk equation in order to derive the kinetic parameters in the absence (KM and Vmax) or in the presence (K’M and V’max) of the inhibitor.
(§3) The inhibition power of the various compounds and their inhibition mechanisms were evaluated. […] However, an apparent inhibition constant (K’i) was calculated at each inhibitor concentration using the equations hereafter reported, depending on the type of inhibition tentatively approached from the experimental data:K’i = V’max × [I]/(Vmax − V’max)(1) K’i = KM × [I]/(K’M − KM)(2) K’i = K’M × [I]/(KM − K’M)(3)
(§4) The K’i values obtained at different inhibitor concentrations were then averaged to obtain a unique value of apparent Ki for each compound.

Assay [5] deals with T2, Human monoamine oxidase B. Kind of assay: Kinetic analysis of MAO-B inhibition (KM, Vmax, apparent Ki). The format is biochemical. The method, then: as §1, §2, §3, §4
Assay [6] concerns the target T3, bovine milk xanthine oxidase. Kind of assay: Kinetic analysis of xanthine oxidase inhibition. The format is biochemical. How it is done:
Xanthine oxidase activity was assayed through a spectrophotometric method, essentially as previously reported. In particular, the oxidation of xanthine to uric acid catalyzed by XO was monitored with a Cary 100 UV-Vis Spectrophotometer (Agilent Technologies, Milan, Italy) at 25 °C, thanks to the increase in absorbance at 295 nm due to uric acid formation. In steady-state measurements of XO activity, the assay was carried out in a 500-μL final volume reaction mixture containing 100 mM phosphate buffer, pH 7.8 plus 0.1 mM EDTA (buffer B), 75 μM xanthine, and different concentrations of the various inhibitors. The DMSO concentration carried over by the inhibitor was 1% (v/v), and an identical concentration of DMSO was used in the absence of the inhibitor. The reaction started with the addition of XO and was followed kinetically for up to 30 s. The initial rate of uric acid formation was expressed as ΔE/min. The effect of each inhibitor in the XO assay was evaluated, and the data were treated as previously indicated for the MAO assay, including the extrapolation of the IC50 values.
as §2
The inhibition power of the various compounds and their inhibition mechanisms were evaluated. […]

In a further assay the test system is XO. Also noted: method as in PMID 16450295. The following applies: cited from earlier work.
[7] abbreviates: kynuramine 25–150 µM, two fixed inhibitor concentrations.

The structures appear in SMILES notation.

For orientation: IC50 means the concentration at which inhibition is half-maximal.

With `C#CCN(C)CCCOc1ccc(Cl)cc1Cl` [Clorgyline, clorgyline], the “Inhibition Type (MAO-A)” value in the assay on MAO-A was “Inactivator [52]”.
On to `O=C(OCCc1cc(O)c(O)cc1[N+](=O)[O-])C1CCN(Cc2ccccc2)CC1` [HT2, 4,5-dihydroxy-2-nitrophenethyl 1-benzylpiperidine-4-carboxylate], for which the IC50 in assay [1] was 322 ± 58 µM; in assay [2], 184 ± 48 µM; in assay [3] (75 μM xanthine, pH 7.8, 25 °C, mean ± SE (n), extrapolated from semilogarithmic plot, read-out: IC50 XO inhibition), 109 ± 20 µM. Also, the “Inhibition of XO activity (in words)” value in assay [3] (steady-state, concentration series) is reported as “clearly evident concentration-dependent inhibition”. In addition, the Ki is 398 ± 56 µM in assay [4] (apparent Ki, mean ± SE (n), read-out: Ki, Calculated from Vmax Decrease (MAO-A)); 186 ± 98 µM in assay [5] (uncompetitive, apparent Ki, mean ± SE (n), read-out: Ki, average value from Vmax or KM decrease (MAO-B)); 63 ± 8 µM in assay [6] (apparent Ki, mean ± SE (n), read-out: Ki Calculated from KM Increase (XO)). For the same compound, the “Inhibition Type (MAO-A)” value in assay [4] (setting [7]) is recorded as “noncompetitive”. In addition, the “Inhibition Type (MAO-B)” value in assay [5] (setting [7]) is listed as “uncompetitive”. Further, the “Note: type of inhibition approached (XO)” value in assay [6] is listed as “approaching competitive”. In assay [6] (xanthine 4–30 µM, 75 or 100 µM HT2), the “Inhibition Type (XO)” value is reported as “mixed-type”.
Consider `Oc1ncnc2[nH]ncc12` [Allopurinol, allopurinol], for which, in the assay with XO, the “Inhibition Type (XO)” value is “Competitive [53]” and the Ki is 1.8 µM.

The record behind these values is paper PMC10819651 (Molecules, 2024).
